According to patent US20230113037A1 (Bayer Aktiengesellschaft, priority 2019, published 2023):
Read-outs that look alike come from different tables or passages of the source.

Key:
AHR [1] = target: T1, AHR (Homo sapiens, UniProt P35869); test: In vitro assay 1: antagonism in human cell line (AHR transactivation, firefly luciferase reporter, kynurenic acid prestimulated); type: cell-based; settings: AHR Antagonism Human IC50 [M]
T1 construct: U87 MG glioblastoma cells (ATCC #HTB-14) endogenously expressing AHR; endogenous in cells; host or cells: U87 MG glioblastoma cells (ATCC #HTB-14)
T1 sequence (P35869 11-848): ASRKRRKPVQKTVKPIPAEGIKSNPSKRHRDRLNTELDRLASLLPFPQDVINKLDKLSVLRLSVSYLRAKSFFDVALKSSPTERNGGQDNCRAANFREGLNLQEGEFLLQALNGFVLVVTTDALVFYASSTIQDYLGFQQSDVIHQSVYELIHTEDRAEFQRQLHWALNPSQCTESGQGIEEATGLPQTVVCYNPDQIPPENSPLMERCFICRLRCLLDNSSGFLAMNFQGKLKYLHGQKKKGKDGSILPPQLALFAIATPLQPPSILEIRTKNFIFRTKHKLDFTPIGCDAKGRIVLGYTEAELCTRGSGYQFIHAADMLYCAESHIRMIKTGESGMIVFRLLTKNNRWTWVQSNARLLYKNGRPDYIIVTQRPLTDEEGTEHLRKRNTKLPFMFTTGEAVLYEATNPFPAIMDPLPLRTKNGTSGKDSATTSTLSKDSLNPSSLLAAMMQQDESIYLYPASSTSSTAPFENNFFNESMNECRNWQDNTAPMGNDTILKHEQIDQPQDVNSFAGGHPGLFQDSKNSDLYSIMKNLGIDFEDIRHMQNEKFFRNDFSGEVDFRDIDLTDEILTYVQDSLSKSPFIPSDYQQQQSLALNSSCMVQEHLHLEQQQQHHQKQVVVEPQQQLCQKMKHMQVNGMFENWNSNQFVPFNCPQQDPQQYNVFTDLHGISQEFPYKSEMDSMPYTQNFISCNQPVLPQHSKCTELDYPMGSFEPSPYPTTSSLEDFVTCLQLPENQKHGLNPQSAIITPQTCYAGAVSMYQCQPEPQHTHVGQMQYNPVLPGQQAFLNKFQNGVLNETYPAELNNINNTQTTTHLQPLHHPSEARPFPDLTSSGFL
Procedure, shortened: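 U87 MG glioblastoma cells with endogenous AHR, stably carrying a DRE-driven firefly luciferase reporter and constitutive Renilla reporter, prestimulated with kynurenic acid before compound addition. Firefly and Renilla read by dual luciferase; Renilla flags toxicity; normalized to controls (150 μM kynurenic acid + 5 μM staurosporine as full inhibition); repeat values averaged or median.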

AHR [2] = target: T2, AHR (Mus musculus, UniProt P30561); test: In vitro assay 3: antagonism in mouse cell line (AHR transactivation, firefly luciferase reporter, kynurenic acid prestimulated); type: cell-based
T2 sequence (P30561 1-848 P471L/N533S/M589L): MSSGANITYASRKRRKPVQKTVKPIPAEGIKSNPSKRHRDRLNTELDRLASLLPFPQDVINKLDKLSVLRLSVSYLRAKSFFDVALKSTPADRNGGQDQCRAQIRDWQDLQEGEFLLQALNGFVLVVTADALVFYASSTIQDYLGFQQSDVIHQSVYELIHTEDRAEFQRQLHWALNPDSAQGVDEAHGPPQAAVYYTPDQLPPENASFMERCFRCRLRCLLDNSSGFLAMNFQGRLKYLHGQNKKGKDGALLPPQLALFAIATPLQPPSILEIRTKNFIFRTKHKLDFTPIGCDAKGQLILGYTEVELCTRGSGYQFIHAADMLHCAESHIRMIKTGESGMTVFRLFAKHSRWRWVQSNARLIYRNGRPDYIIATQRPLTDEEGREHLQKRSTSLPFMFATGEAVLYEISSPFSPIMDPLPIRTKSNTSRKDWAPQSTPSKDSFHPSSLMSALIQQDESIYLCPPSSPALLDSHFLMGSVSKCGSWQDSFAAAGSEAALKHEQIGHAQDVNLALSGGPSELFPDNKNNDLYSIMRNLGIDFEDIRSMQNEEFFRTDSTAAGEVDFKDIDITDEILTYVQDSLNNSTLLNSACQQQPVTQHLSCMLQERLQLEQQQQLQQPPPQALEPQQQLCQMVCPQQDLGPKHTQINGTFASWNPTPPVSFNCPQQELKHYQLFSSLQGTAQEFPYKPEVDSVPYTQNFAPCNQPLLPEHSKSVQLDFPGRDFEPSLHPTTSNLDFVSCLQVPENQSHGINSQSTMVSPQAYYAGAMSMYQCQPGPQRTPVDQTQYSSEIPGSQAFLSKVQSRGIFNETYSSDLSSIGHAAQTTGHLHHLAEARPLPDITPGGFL
Procedure, shortened: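 Mouse cells stably carrying a DRE-driven, AHR-inducible firefly luciferase reporter were prestimulated with the endogenous agonist kynurenic acid before compound addition. Luciferase activity was measured by luminescence and normalized to positive and negative controls, with cells lacking kynurenic acid serving as full-inhibition control. Repeat tests are reported as mean or median.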

[3] = Hepa 1c1c7 cells, 200 μM kynurenic acid, 20 hours, firefly luciferase reporter, read-out: AHR Antagonism Mouse IC50
[4] = mouse Hepa 1c1c7 cells, 200 μM kynurenic acid, 20 hours, read-out: AHR Antagonism Mouse IC50

Compound	IC50 (AHR [1]; firefly luciferase reporter)	IC50 (AHR [2]; [3])	IC50 (AHR [1])	IC50 (AHR [2]; [4])	IC50 (AHR [2]; read-out: AHR Antagonism Mouse IC50, Hepa 1c1c7 cells, 200 μM kynurenic acid, 20 hours, firefly luciferase reporter)
CC(C)[C@@H](Nc1nc2c(Br)cccc2c2nc(-c3cnn(C)c3)nn12)C(=O)N1CCN(C)CC1 [Example 928, (2R)-2-{[7-bromo-2-(1-methyl-1H-pyrazol-4-yl)[1,2,4]triazolo[1,5-c]quinazolin-5-yl]amino}-3-methyl-1-(4-methylpiperazin-1-yl)butan-1-one]	1.81e-08 M	5.76 nM	–	–	–
CC[C@@H](Nc1nc2ccccc2c2nc(-c3cc(C(F)(F)F)cc(C(F)(F)F)c3)nn12)C(N)=O [Example 361, (2R)-2-({2-[3,5-bis(trifluoromethyl)phenyl][1,2,4]triazolo[1,5-c]quinazolin-5-yl}amino)butanamide]	–	–	> 2e-05 M	66.8 nM	–
COc1ccc(-c2nc3c4cccc(Br)c4nc(N[C@@H]4CCCCNC4=O)n3n2)c(OC(F)(F)F)c1 [Example 565, (3R)-3-({7-bromo-2-[4-methoxy-2-(trifluoromethoxy)phenyl][1,2,4]triazolo[1,5-c]quinazolin-5-yl}amino)azepan-2-one]	–	–	8.44e-09 M	3.33 nM	–
CCC[C@@H](Nc1nc2c(Br)cccc2c2nc(-c3ccc(C#N)cc3)nn12)C(=O)NC [Example 562, N^2-[7-bromo-2-(4-cyanophenyl)[1,2,4]triazolo[1,5-c]quinazolin-5-yl]-N-methyl-D-norvalinamide]	–	–	1.37e-09 M	2.98 nM	–
C[C@@H](Nc1nc2c(Br)cccc2c2nc(-c3cnn(C)c3)nn12)C(=O)N1CC2(CN(C)C2)C1 [Example 919, (2R)-2-{[7-bromo-2-(1-methyl-1H-pyrazol-4-yl)[1,2,4]triazolo[1,5-c]quinazolin-5-yl]amino}-1-(6-methyl-2,6-diazaspiro[3.3]heptan-2-yl)propan-1-one]	1.18e-06 M	613 nM	–	–	–
COc1ccc(-c2nc3c4ccccc4nc(N[C@@H]4CCCCNC4=O)n3n2)cc1F [Example 635, (3R)-3-{[2-(3-fluoro-4-methoxyphenyl)[1,2,4]triazolo[1,5-c]quinazolin-5-yl]amino}azepan-2-one]	–	–	9.49e-10 M	1.1 nM	–
COc1ccc(-c2nc3c4cccc(S(C)(=N)=O)c4nc(N[C@@H]4CCCCNC4=O)n3n2)cc1 (single isomer, unassigned) [Example 854]	7.05e-09 M	147 nM	–	–	–
Cn1cc(-c2nc3c4ccccc4nc(NC4CCNC4=O)n3n2)cn1 (centres unmarked) [Example 15, 3-{[2-(1-methyl-1H-pyrazol-4-yl)[1,2,4]triazolo[1,5-c]quinazolin-5-yl]amino}pyrrolidin-2-one]	–	–	1.78e-05 M	7820 nM	–
O=C1NCCNC[C@H]1Nc1nc2ccccc2c2nc(-c3cccc(F)c3)nn12 [Example 261, (6R)-6-{[2-(3-fluorophenyl)[1,2,4]triazolo[1,5-c]quinazolin-5-yl]amino}-1,4-diazepan-5-one]	–	–	7.39e-08 M	46.6 nM	–
C[C@@H]1CN(C(=O)[C@@H](C)Nc2nc3c(Br)cccc3c3nc(-c4cnn(C)c4)nn23)CCO1 [Example 906, (2R)-2-{[7-bromo-2-(1-methyl-1H-pyrazol-4-yl)[1,2,4]triazolo[1,5-c]quinazolin-5-yl]amino}-1-[(2R)-2-methylmorpholin-4-yl]propan-1-one]	2.3e-08 M	19.5 nM	–	–	–
CCC[C@@H](Nc1nc2ccccc2c2nc(-c3cccc(OC(F)(F)F)c3)nn12)C(=O)NC [Example 316, N-methyl-N^2-{2-[3-(trifluoromethoxy)phenyl][1,2,4]triazolo[1,5-c]quinazolin-5-yl}-D-norvalinamide]	–	–	2.07e-08 M	3.76 nM	–
Cc1cccc2nc(N[C@@H]3CCCCNC3=O)n3nc(-c4cnn(C)c4)nc3c12 [Example 183, (3R)-3-{[10-methyl-2-(1-methyl-1H-pyrazol-4-yl)[1,2,4]triazolo[1,5-c]quinazolin-5-yl]amino}azepan-2-one]	–	–	2.48e-08 M	453 nM	–
COc1cccc(-c2nc3c4ccccc4nc(N[C@@H](C)C(N)=O)n3n2)c1 [Example 81]	–	–	4.02e-07 M	287 nM	–
CS(=O)(=O)c1ccc(-c2nc3c4ccccc4nc(N[C@@H]4CCCCNC4=O)n3n2)cc1 [Example 372, (3R)-3-({2-[4-(methanesulfonyl)phenyl][1,2,4]triazolo[1,5-c]quinazolin-5-yl}amino)azepan-2-one]	–	–	8.65e-09 M	1.73 nM	–
COc1ccc(-c2nc3c4cccc(C(F)(F)F)c4nc(N[C@@H]4CCCCNC4=O)n3n2)cc1 [Example 204, (3R)-3-{[2-(4-methoxyphenyl)-7-(trifluoromethyl)[1,2,4]triazolo[1,5-c]quinazolin-5-yl]amino}azepan-2-one]	–	–	1.15e-09 M	1.02 nM	–
CC[C@H](Nc1nc2ccccc2c2nc(-c3ccc(Br)cc3OC(F)(F)F)nn12)C(N)=O [Example 524, (2S)-2-({2-[4-bromo-2-(trifluoromethoxy)phenyl][1,2,4]triazolo[1,5-c]quinazolin-5-yl}amino)butanamide]	–	–	1.3e-07 M	17.7 nM	–
COc1ccc2nc(N[C@@H]3CCCCNC3=O)n3nc(-c4ccccc4F)nc3c2c1 [Example 240, (3R)-3-{[2-(2-fluorophenyl)-9-methoxy[1,2,4]triazolo[1,5-c]quinazolin-5-yl]amino}azepan-2-one]	–	–	4.08e-08 M	171 nM	–
O=C1NCCCC[C@H]1Nc1nc2ccccc2c2nc(-c3ccsc3Cl)nn12 [Example 611, (3R)-3-{[2-(2-chlorothiophen-3-yl)[1,2,4]triazolo[1,5-c]quinazolin-5-yl]amino}azepan-2-one]	–	–	4.36e-09 M	3.16 nM	–
Cc1nn(C)cc1-c1nc2c3cccc(Cl)c3nc(N[C@@H]3CNCCNC3=O)n2n1 [Example 951, (6R)-6-{[7-chloro-2-(1,3-dimethyl-1H-pyrazol-4-yl)[1,2,4]triazolo[1,5-c]quinazolin-5-yl]amino}-1,4-diazepan-5-one]	3.22e-09 M	5.44 nM	–	–	–
O=C1NCCCC[C@H]1Nc1nc2ccccc2c2nc(-c3cc(F)ccc3OC(F)(F)F)nn12 [Example 492, (3R)-3-({2-[5-fluoro-2-(trifluoromethoxy)phenyl][1,2,4]triazolo[1,5-c]quinazolin-5-yl}amino)azepan-2-one]	–	–	2.22e-08 M	5.71 nM	–
O=C1NCCNC[C@H]1Nc1nc2ccccc2c2nc(-c3ccccc3C(F)(F)F)nn12 [Example 262, (6R)-6-({2-[2-(trifluoromethyl)phenyl][1,2,4]triazolo[1,5-c]quinazolin-5-yl}amino)-1,4-diazepan-5-one]	–	–	1.37e-06 M	85.7 nM	–
C[C@@H](Nc1nc2c(C(F)(F)F)cccc2c2nc(-c3cnn(C)c3)nn12)C(=O)N1CC2(COC2)C1 [Example 880, (2R)-2-{[2-(1-methyl-1H-pyrazol-4-yl)-7-(trifluoromethyl)[1,2,4]triazolo[1,5-c]quinazolin-5-yl]amino}-1-(2-oxa-6-azaspiro[3.3]heptan-6-yl)propan-1-one]	5.77e-08 M	–	–	–	193 nM
